Results from patent US11014908B2, “Chemical compounds” (Pfizer Inc., priority 2018, dated 2021).

Key:
[1] = biological target: T1, purified sickle cell hemoglobin (HbS) (Homo sapiens, UniProt P68871+P69905, E7V); assay: Binding affinity to purified HbS by Surface Plasmon Resonance (SPR); details: crosslinked biotinylated HbS, 1:1 binding model
T1 construct: HbS was obtained from the blood of homozygous S/S patients; from tissue; host or cells: red blood cells of homozygous S/S patients
Method in brief: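 Patient-derived HbS, purified and crosslinked between beta subunits (Lys82-Lys82), biotinylated and captured on streptavidin sensor at 4000–5000 RU. Running buffer 100 mM potassium phosphate pH 7.5, 1 mM EDTA, 0.1 mg/mL BSA, 1% DMSO; 2 min association, ≥5 min dissociation, ≥4 concentrations; Kd from 1:1 model fit.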

HbS = biological target: T2, HbS (Homo sapiens, UniProt P68871+P69905, E7V); assay: 'R'-'T' assay (conversion of oxy HbS to deoxy HbS under deoxygenating conditions); assay type: biochemical; details: 50% inhibition of HbS 'R'-'T' conversion; 3 uM HbS, <1% O2
T2 construct: HbS was obtained from the blood of homozygous S/S patients; from tissue; host or cells: red blood cells of homozygous S/S patients
Method in brief: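 Oxy HbS diluted to 3 µM in 100 mM potassium phosphate pH 7.4, incubated 1 h at room temperature with compound, then held under <1% O2 for 2 h. Conversion followed by background-corrected 415/430 nm absorbance ratio at 0, 90 and 120 min; percent effect normalized to tucaresol, IC50 from concentration series.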

Hb in human whole blood = biological target: T3, Hb in human whole blood (Homo sapiens, UniProt P68871+P69905); assay: Whole blood oxygen affinity assay (Hemox analyzer), human blood; details: 1 mM compound, 1 hour at 25 C, relative to DMSO
T3 construct: measured in human, dog, and mouse whole blood; from tissue; host or cells: human whole blood
Text: Whole Blood Oxygen Affinity Assay
Oxygen affinity is a marker of the ability of Hb to bind and release oxygen in solution. It can be determined in whole blood by measuring the percentage of oxygenated and deoxygenated Hb present at a given oxygen concentration. Oxygen affinity is expressed as the p50, the partial pressure of oxygen at which 50% of the Hb in solution has oxygen bound, or the p20, the partial pressure of oxygen at which 20% of the Hb in solution has oxygen bound.
To determine the effects of compounds of the invention on oxygen affinity the p50 and p20 were measured in human, dog, and mouse whole blood using a Hemeox Analyzer (TCS Scientific). The blood was spiked with a compound of the invention to a concentration of 1 mM and incubated for 1 hour at 25 C with constant rotation. A concentration of 1 mM of compound was selected to approximate 20% hemoglobin occupancy in whole blood. Controls with the same concentration of DMSO, but no compound were incubated in the same way at the same time. Following incubation, samples were immediately assayed for oxygen affinity using the Hemox analyzer. Fifty μL of blood sample was diluted into 5 mL of hemox buffer (TCS Scientific), which had been pre-incubated to 37 C. Following dilution, samples were loaded into the analysis chamber, and fully oxygenated using compressed air. Once samples had reached an pO2 of >150 torr, the measurement was initiated by switching to N2, and the percent oxyhemoglobin as a function of partial pressure was recorded. The p20 and p50 of each sample were recorded from the instrument readout. Data are reported as the percent (%) change relative to DMSO according to the following calculations: […]

Townes SCD mice = assay: Chronic dosing study (BID, 15 days) in Townes SCD mice; assay type: in vivo, mouse; details: 100 mg/kg BID for 15 days, n=4-5, Townes SCD mice, vs vehicle
Protocol: Following 15 days of dosing, blood samples were collected from all animals to run in the Hemeox analyzer to generate oxygen affinity curves, complete blood analysis was performed using Idexx hematology Analyzer, and cell sickling assessed as described before. Soluble Vascular Adhesion Molecule 1 levels (sVCAM1) were assessed by Enzyme linked immunosorbent assay (ELISA) from R&D systems. Results are presented below in Tables 7, 8 and 9.

[2] = Single dose study in sickle Townes mice: exposure in whole blood; assay type: in vivo; details: male, Townes (sickle cell disease model), mouse, SCD mice, n=3
Protocol: In Vivo Studies Mouse Model
The effect of the compounds of the invention was evaluated in-male sickle Townes mice in a single dose study. Compounds of the invention were administered in amounts set out in Tables 7, 8 and 9 that follow by oral gavage. Control mice received vehicle. Blood (50 μL) was drawn at 0.5 h, 1 h, 4 h, 7 h, 10 h, and 24 h. To measure exposure in whole blood, 20 μL sample was used. Blood drawn at 0.5 h was also evaluated for cell sickling.

Kd [1] | IC50 (HbS) | Reduction in p20 (%) Human (Hb in human whole blood) | Reduction in p50 (%) Human (Hb in human whole blood) | Structure (SMILES) | other results
14 nM | 28900 nM |  |  | C[C@H](Oc1cc2cc(C(N)=O)c(F)cc2nc1N)c1nc2[nH]ncc2cc1-n1cccn1 [Example 76, 2-amino-7-fluoro-3-{(1S)-1-[5-(1H-pyrazol-1-yl)-1H-pyrazolo[3,4-b]pyridin-6-yl]ethoxy}quinoline-6-carboxamide] | 
195 nM | 6300 nM |  |  | Cc1cc2nc(N)c(O[C@@H](C)c3nc4c(cnn4CCO)cc3-n3cccn3)cc2cn1 [Example 77, 2-[6-{(1S)-1-[(2-amino-7-methyl-1,6-naphthyridin-3-yl)oxy]ethyl}-5-(1H-pyrazol-1-yl)-1H-pyrazolo[3,4-b]pyridin-1-yl]ethanol] | 

Further lines, the compound ahead of its results:

Structure (SMILES) | Kd [1] | IC50 (HbS) | Reduction in p20 (%) Human (Hb in human whole blood) | Reduction in p50 (%) Human (Hb in human whole blood) | other results
C[C@H](Oc1cc2cc(F)ccc2nc1N)c1cc(C(=O)O)ccc1-n1cccn1 [Example 4, 3-{(1S)-1-[(2-amino-6-fluoroquinolin-3-yl)oxy]ethyl}-4-(1H-pyrazol-1-yl)benzoic Acid] | 100 nM | 4920 nM | 40 ± 4% | 7 ± 3% | 
C[C@H](Oc1cc2cc(C(N)=O)ccc2nc1N)c1ncc(F)cc1-n1cccn1 [Example 27, 2-amino-3-{(1S)-1-[5-fluoro-3-(1H-pyrazol-1-yl)pyridin-2-yl]ethoxy}quinoline-6-carboxamide] | 183 nM | 5360 nM | 70 ± 4% | 26 ± 1% | Hb, Change (increase) (Townes SCD mice): 54.4 ± 8.7% increase; Hematocrit, Change (increase) (Townes SCD mice): 42.0 ± 12.7% increase; RBC sickling, Change (decrease) (Townes SCD mice): 19.2 ± 5.4% decrease; RBCs, Change (increase) (Townes SCD mice): 51.9 ± 8.3% increase; Reticulocytes, Change (decrease) (Townes SCD mice): 18.4 ± 5.5% decrease; p20, Change (decrease) (Townes SCD mice): 10.8 ± 3.8% decrease; p50, Change (decrease) (Townes SCD mice): 7.89 ± 3.36% decrease; concentration at 0.5 h ([2]; single dose 5 mg/kg oral gavage): 7.4 µM; concentration at 0.5 h ([2]; single dose 50 mg/kg oral gavage): 208 µM
C[C@H](Oc1cc2cc(C(N)=O)ccc2nc1N)c1cc2[nH]ncc2cc1-n1cccn1 [Example 61, 2-amino-3-{(1S)-1-[5-(1H-pyrazol-1-yl)-1H-indazol-6-yl]ethoxy}quinoline-6-carboxamide] | 36 nM | 5450 nM | 14 ± 8% | 1 ± 6% | 
Cc1cc2nc(N)c(O[C@@H](C)c3nc4[nH]ncc4cc3-n3cccn3)cc2cn1 [Example 75, 7-methyl-3-{(1S)-1-[5-(1H-pyrazol-1-yl)-1H-pyrazolo[3,4-b]pyridin-6-yl]ethoxy}-1,6-naphthyridin-2-amine] | 36 nM | 3760 nM |  |  | 
